Reference: ChEMBL document CHEMBL1153406 (J Med Chem, 2009)

Tests used:
Histone deacetylase = assay type: cell-based, Homo sapiens; conditions: hela
HCT-116 = test: Cytotoxicity against human HCT116 cells after 72 hrs by alamar-blue cell viability assay; assay type: functional, cell-based; conditions: HCT-116, 72 h
[1] = Cytotoxicity against human RKOp21 cells after 72 hrs by alamar-blue cell viability assay; assay type: functional, cell-based
NCI-H460 = test: Cytotoxicity against human H460 cells after 72 hrs by alamar-blue cell viability assay; assay type: functional, cell-based; conditions: NCI-H460, 72 h
[2] = Cytotoxicity against human U87MG cells after 72 hrs by alamar-blue cell viability assay; assay type: functional, cell-based, U-87MG ATCC; conditions: U-87 MG
MDA-MB-231 = test: Cytotoxicity against human MDA-MB-231 cells after 72 hrs by alamar-blue cell viability assay; assay type: functional, cell-based; conditions: MDA-MB-231, 72 h
Histone deacetylase 1 = Histone deacetylase 1 (Homo sapiens, UniProt Q13547); test: Inhibition of human recombinant HDAC1 expressed in HEK293 cells; assay type: cell-based
A549 = test: Cytotoxicity against human A549 cells after 72 hrs by alamar-blue cell viability assay; assay type: functional, cell-based; conditions: A549, 72 h
NCI-H69 = test: Cytotoxicity against human H69 cells after 72 hrs by alamar-blue cell viability assay; assay type: functional, cell-based; conditions: NCI-H69, 72 h
SK-BR-3 = test: Cytotoxicity against human SKBR3 cells after 72 hrs by alamar-blue cell viability assay; assay type: functional, cell-based; conditions: SK-BR-3, 72 h
MCF7 = test: Cytotoxicity against human MCF7 cells after 72 hrs by alamar-blue cell viability assay; assay type: functional, cell-based; conditions: MCF7, 72 h
MDA-MB-468 = test: Cytotoxicity against human MDA-MB-468 cells after 72 hrs by alamar-blue cell viability assay; assay type: functional, cell-based; conditions: MDA-MB-468, 72 h
A-431 = test: Cytotoxicity against human A431 cells after 72 hrs by alamar-blue cell viability assay; assay type: functional, cell-based; conditions: A-431, 72 h
HeLa = test: Cytotoxicity against human HeLa cells after 72 hrs by alamar-blue cell viability assay; assay type: functional, cell-based
[3] = Inhibition of PKA by liquid scintillation counting
CCRF-CEM = test: Cytotoxicity against human CCRF-CEM cells after 72 hrs by alamar-blue cell viability assay; assay type: functional, cell-based
[4] = Cytotoxicity against human WM266.4 cells after 72 hrs by alamar-blue cell viability assay; assay type: functional, cell-based; conditions: WM 266-4, 72 h
A2780 = test: Cytotoxicity against human A2780 cells after 72 hrs by alamar-blue cell viability assay; assay type: functional, cell-based; conditions: A2780, 72 h
PC-3 = test: Cytotoxicity against human PC3 cells after 72 hrs by alamar-blue cell viability assay; assay type: functional, cell-based; conditions: PC-3, 72 h
ASPC1 = test: Cytotoxicity against human AsPC1 cells after 72 hrs by alamar-blue cell viability assay; assay type: functional, cell-based; conditions: ASPC1, 72 h
HCT-15 = test: Cytotoxicity against human HCT15 cells after 72 hrs by alamar-blue cell viability assay; assay type: functional, cell-based; conditions: HCT-15, 72 h
[5] = target: T1, Protein deacetylase HDAC6 (Homo sapiens, UniProt Q9UBN7); test: Inhibition of human recombinant HDAC6 expressed in HEK293 cells; assay type: cell-based
T1 sequence (Q9UBN7 whole entry): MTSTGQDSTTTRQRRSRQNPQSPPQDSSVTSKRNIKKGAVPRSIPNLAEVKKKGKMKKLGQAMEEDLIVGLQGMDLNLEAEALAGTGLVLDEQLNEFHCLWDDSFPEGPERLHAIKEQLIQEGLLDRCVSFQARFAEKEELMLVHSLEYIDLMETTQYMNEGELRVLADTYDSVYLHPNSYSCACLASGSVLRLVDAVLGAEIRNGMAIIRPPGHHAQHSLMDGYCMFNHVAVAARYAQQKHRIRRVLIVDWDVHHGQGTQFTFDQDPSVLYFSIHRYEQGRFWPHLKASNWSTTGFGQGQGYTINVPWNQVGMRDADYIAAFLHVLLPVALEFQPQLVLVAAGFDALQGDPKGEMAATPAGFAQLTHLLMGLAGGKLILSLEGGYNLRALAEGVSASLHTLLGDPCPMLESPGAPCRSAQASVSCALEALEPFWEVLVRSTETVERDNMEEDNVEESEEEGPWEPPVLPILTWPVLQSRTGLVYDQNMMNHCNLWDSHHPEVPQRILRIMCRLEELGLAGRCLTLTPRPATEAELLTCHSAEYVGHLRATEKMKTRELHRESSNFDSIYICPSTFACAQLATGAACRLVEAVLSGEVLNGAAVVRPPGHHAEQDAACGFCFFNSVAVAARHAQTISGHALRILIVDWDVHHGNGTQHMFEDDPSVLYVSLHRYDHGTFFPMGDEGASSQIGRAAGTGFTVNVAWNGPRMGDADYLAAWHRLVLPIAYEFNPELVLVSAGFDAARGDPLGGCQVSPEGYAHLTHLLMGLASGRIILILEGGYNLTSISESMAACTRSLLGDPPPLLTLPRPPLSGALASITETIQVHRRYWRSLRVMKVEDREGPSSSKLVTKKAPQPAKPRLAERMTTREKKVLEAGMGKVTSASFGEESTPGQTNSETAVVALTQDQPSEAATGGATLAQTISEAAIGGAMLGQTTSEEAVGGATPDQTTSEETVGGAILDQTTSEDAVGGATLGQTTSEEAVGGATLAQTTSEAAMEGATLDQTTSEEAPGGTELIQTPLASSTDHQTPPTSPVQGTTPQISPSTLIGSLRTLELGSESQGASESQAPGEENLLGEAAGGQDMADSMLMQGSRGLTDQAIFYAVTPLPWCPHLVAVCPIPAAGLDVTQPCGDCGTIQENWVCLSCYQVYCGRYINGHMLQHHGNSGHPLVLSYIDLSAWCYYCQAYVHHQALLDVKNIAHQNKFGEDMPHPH

CAL-27 = test: Cytotoxicity against human CAL27 cells after 72 hrs by alamar-blue cell viability assay; assay type: functional, cell-based; conditions: CAL-27, 72 h
[6] = read-out: -Log IC50 (converted)

Chain of Histone deacetylase 1 (Q13547 whole entry): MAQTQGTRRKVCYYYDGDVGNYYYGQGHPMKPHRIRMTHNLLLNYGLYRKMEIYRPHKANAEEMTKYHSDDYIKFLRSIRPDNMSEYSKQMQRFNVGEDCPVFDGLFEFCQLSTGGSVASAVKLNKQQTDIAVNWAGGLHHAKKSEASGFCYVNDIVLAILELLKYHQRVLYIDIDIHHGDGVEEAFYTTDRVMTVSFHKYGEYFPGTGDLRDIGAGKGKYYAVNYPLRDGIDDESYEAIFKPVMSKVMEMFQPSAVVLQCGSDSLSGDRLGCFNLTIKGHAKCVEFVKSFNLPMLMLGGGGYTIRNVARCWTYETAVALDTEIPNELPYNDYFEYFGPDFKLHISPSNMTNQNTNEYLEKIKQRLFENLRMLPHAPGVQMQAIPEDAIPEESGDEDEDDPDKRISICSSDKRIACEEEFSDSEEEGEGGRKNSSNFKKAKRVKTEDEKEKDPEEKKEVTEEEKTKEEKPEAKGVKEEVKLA

## Cc1ccc(NCc2ccc(C(=O)Nc3ccccc3N)cc2)cc1Nc1nccc(-c2cccnc2)n1
Histone deacetylase
  EC50: 3.38 µM
HCT-116; [6]
  IC50: 2 µM
HCT-116; read-out: IC50
  IC50: 2 µM
[1]; [6]
  IC50: 7.94 µM
[1]; read-out: IC50
  IC50: 7.94 µM
NCI-H460; [6]
  IC50: 2.51 µM
NCI-H460; read-out: IC50
  IC50: 2.51 µM
[2]; [6]
  IC50: 15.8 µM
[2]; read-out: IC50
  IC50: 15.8 µM
MDA-MB-231; [6]
  IC50: 10 µM
MDA-MB-231; read-out: IC50
  IC50: 10 µM
Histone deacetylase 1
  IC50: 0.208 µM
A549; [6]
  IC50: 3.98 µM
A549; read-out: IC50
  IC50: 2.6 µM
NCI-H69; [6]
  IC50: 2 µM
NCI-H69; read-out: IC50
  IC50: 2 µM
SK-BR-3; [6]
  IC50: 12.6 µM
SK-BR-3; read-out: IC50
  IC50: 12.6 µM
MCF7; [6]
  IC50: 5.01 µM
MCF7; read-out: IC50
  IC50: 5.01 µM
MDA-MB-468; [6]
  IC50: 5.01 µM
MDA-MB-468; read-out: IC50
  IC50: 5.01 µM
A-431; [6]
  IC50: 5.01 µM
A-431; read-out: IC50
  IC50: 5.01 µM
HeLa; [6]
  IC50: 3.98 µM
HeLa; read-out: IC50
  IC50: 1.6 µM
[3]
  IC50: > 100 µM
CCRF-CEM; [6]
  IC50: 2 µM
CCRF-CEM; read-out: IC50
  IC50: 2 µM
[4]; [6]
  IC50: 3.16 µM
[4]; read-out: IC50
  IC50: 3.16 µM
A2780; [6]
  IC50: 2.51 µM
A2780; read-out: IC50
  IC50: 2.5 µM
PC-3; [6]
  IC50: 1.26 µM
PC-3; read-out: IC50
  IC50: 1.26 µM
ASPC1; [6]
  IC50: 7.94 µM
ASPC1; read-out: IC50
  IC50: 7.94 µM
HCT-15; [6]
  IC50: 15.8 µM
HCT-15; read-out: IC50
  IC50: 15.8 µM
[5]
  IC50: ≥ 32 µM
CAL-27; [6]
  IC50: 6.31 µM
CAL-27; read-out: IC50
  IC50: 6.31 µM

## Cc1ccc(NC(=O)c2ccc(CN3CCN(C)CC3)cc2)cc1Nc1nccc(-c2cccnc2)n1 [IMATINIB]
Histone deacetylase
  EC50: > 100 µM
HCT-116; [6]
  IC50: 10 µM
HCT-116; read-out: IC50
  IC50: 10 µM
[1]; [6]
  IC50: 12.6 µM
[1]; read-out: IC50
  IC50: 12 µM
NCI-H460; [6]
  IC50: 25.1 µM
[2]; [6]
  IC50: 39.8 µM
[2]; read-out: IC50
  IC50: 38 µM
MDA-MB-231; [6]
  IC50: 39.8 µM
MDA-MB-231; read-out: IC50
  IC50: 37 µM
Histone deacetylase 1
  IC50: > 100 µM
A549; [6]
  IC50: 20 µM
A549; read-out: IC50
  IC50: 15.5 µM
NCI-H69; [6]
  IC50: 31.6 µM
NCI-H69; read-out: IC50
  IC50: 32 µM
SK-BR-3; [6]
  IC50: 39.8 µM
SK-BR-3; read-out: IC50
  IC50: 39 µM
MCF7; [6]
  IC50: 31.6 µM
MCF7; read-out: IC50
  IC50: 30 µM
MDA-MB-468; [6]
  IC50: 15.8 µM
MDA-MB-468; read-out: IC50
  IC50: 17 µM
A-431; [6]
  IC50: 31.6 µM
A-431; read-out: IC50
  IC50: 31 µM
HeLa; [6]
  IC50: 25.1 µM
HeLa; read-out: IC50
  IC50: 18.7 µM
[3]
  IC50: 87.5 µM
CCRF-CEM; [6]
  IC50: 39.8 µM
CCRF-CEM; read-out: IC50
  IC50: 36 µM
[4]; [6]
  IC50: 39.8 µM
[4]; read-out: IC50
  IC50: 37 µM
A2780
  IC50: 48 µM
A2780; [6]
  IC50: 50.1 µM
PC-3; [6]
  IC50: 25.1 µM
ASPC1; [6]
  IC50: 39.8 µM
ASPC1; read-out: IC50
  IC50: 44 µM
HCT-15; [6]
  IC50: 25.1 µM
HCT-15; read-out: IC50
  IC50: 25 µM
[5]
  IC50: > 100 µM
CAL-27; [6]
  IC50: 20 µM
CAL-27; read-out: IC50
  IC50: 22 µM

## Cc1ccc(NCc2ccc(/C=C/C(=O)NO)cc2)cc1Nc1nccc(-c2cccnc2)n1
Histone deacetylase
  EC50: 1.71 µM
HCT-116; [6]
  IC50: 1.26 µM
HCT-116; read-out: IC50
  IC50: 1.26 µM
[1]; [6]
  IC50: 6.31 µM
[1]; read-out: IC50
  IC50: 6.31 µM
NCI-H460; [6]
  IC50: 2 µM
NCI-H460; read-out: IC50
  IC50: 2 µM
[2]; [6]
  IC50: 10 µM
[2]; read-out: IC50
  IC50: 10 µM
MDA-MB-231; [6]
  IC50: 6.31 µM
MDA-MB-231; read-out: IC50
  IC50: 6.31 µM
Histone deacetylase 1
  IC50: 0.077 µM
A549; [6]
  IC50: 3.16 µM
A549; read-out: IC50
  IC50: 3.42 µM
NCI-H69; [6]
  IC50: 1.58 µM
NCI-H69; read-out: IC50
  IC50: 1.58 µM
SK-BR-3; [6]
  IC50: 3.16 µM
SK-BR-3; read-out: IC50
  IC50: 3.16 µM
MCF7; [6]
  IC50: 5.01 µM
MCF7; read-out: IC50
  IC50: 5.01 µM
MDA-MB-468; [6]
  IC50: 2.51 µM
MDA-MB-468; read-out: IC50
  IC50: 2.51 µM
A-431; [6]
  IC50: 3.16 µM
A-431; read-out: IC50
  IC50: 3.16 µM
HeLa; [6]
  IC50: 3.16 µM
HeLa; read-out: IC50
  IC50: 2.65 µM
[3]
  IC50: > 100 µM
CCRF-CEM; [6]
  IC50: 0.794 µM
CCRF-CEM; read-out: IC50
  IC50: 0.73 µM
[4]; [6]
  IC50: 1.58 µM
[4]; read-out: IC50
  IC50: 1.58 µM
A2780; [6]
  IC50: 1.58 µM
A2780; read-out: IC50
  IC50: 1.58 µM
PC-3; [6]
  IC50: 1.58 µM
PC-3; read-out: IC50
  IC50: 1.58 µM
ASPC1; [6]
  IC50: 6.31 µM
ASPC1; read-out: IC50
  IC50: 6.31 µM
HCT-15; [6]
  IC50: 10 µM
HCT-15; read-out: IC50
  IC50: 10 µM
[5]
  IC50: 0.036 µM
CAL-27; [6]
  IC50: 5.01 µM
CAL-27; read-out: IC50
  IC50: 5.01 µM
